# Test results reported in patent US8865672B2, “Prevention of tissue ischemia and related methods” (The United States of America, as represented by the …, priority 2006, dated 2014).
# Square brackets hold non-standard residues; d marks the D form. Ends that are not written are not given here.
# Tests used:
# HAVSMC [1] = experiment: 3D collagen matrix contraction assay, human aortic VSMC; assay type: cell-based; conditions: HAVSMC, 10% FCS or 100 nM S1P
# Method: Type I collagen gel (3 mg/ml) with 10×M199 (Gibco, Grand Island, N.Y.) at a 10:1 ratio of collagen to medium was prepared, pH balanced with NaOH and seeded with either HAVSMC or VSMC harvested from aortic segments from C57B16 WT or TSP1 null mice (50,000 cells in 75 μl of gel/well) and aliquoted to 96-well plates (Nunc, Denmark). Plates were incubated for 12 h 37° C. and 5% CO2 allowing for gelation and cell spreading, gently released from the well walls and incubated in serum and additive deficient growth medium with 0.1% BSA in the presence of the indicated treatment agents for 10 h. Contraction was determined by measuring the diameter in perpendicular planes (x, y) of each disk, an average obtained and surface area calculated as (d/2)^2π. Experiments were performed in triplicate. Results represent the mean±SD of at least three separate experiments.
# Human aortic VSMC were plated onto 12-well culture plates (Nunc) at a density of 5×10^4 cells/well in SM-GM+2% FCS and cultured until approximately 90% confluent. A translation-blocking antisense morpholino oligonucleotide complementary to human and murine CD47 ([…]; SEQ ID NO: 21) and a five-base mismatch control (CGTgACAGcCAcGACCgACTGCgCA; SEQ ID NO: 22) were obtained from GeneTools (Philomath, Oreg.). Cultured cells were treated as per the manufacturer's recommendation with morpholinos (10 μM) and utilized within 48 hours of treatment.
# HAVSMC [2] = experiment: Actin cytoskeleton staining (F-actin) in HAVSMC; assay type: cell-based, human
# Method: VSMC were grown on glass well slides (Lab-Tek, Nunc) under standard growth conditions. Cells were incubated at 37° C. for 1 hour in serum and additive deficient growth medium and the indicated treatment agents, after which the media was removed and the cells were fixed in 4% paraformaldehyde in PBS (pH 7.4, Fisher Scientific) for 15 minutes at room temperature. After washing with DPBS, cells were permeabilized for 5 minutes in 0.1% Triton X-100 in PBS and then blocked in M199E/2% BSA for 30 min at room temperature. Cells were stained for F-actin with 1 unit/200 μl medium/1% BSA of Oregon Green 488 phalloidin (Molecular Probes). Slides were imaged using an Olympus IX70 microscope and photographed at constant exposure and gain. In other experiments VSMC were plated on 24-well culture plates (Nunc, Denmark) in smooth muscle growth medium (50,000 cells/well) and weaned from serum and additives over 24 hours. Cell treatment was performed with the indicated agents in plain medium with 0.1% BSA for 5 minutes. Wells were processed as described above. Following staining with phalloidin cells were incubated in methanol for 30 minutes, samples aliquoted to 96-well black plates and fluorescence read at 520 nm (excitation 495 nm). Data was normalized to total protein. Results represent the mean±SD of at least three separate experiments.
# human platelets [3] = experiment: Human platelet adhesion assay; assay type: cell-based; conditions: fibrinogen or collagen, DEA/NO 10 μM
# Method: Bacteriological Petri dishes (35×10 mm, Becton Dickinson Labware) were pre-coated with collagen (3 μg/ml) or fibrinogen (15 μg/mL) overnight. Following aspiration of non-adherent matrix, dishes were blocked with 1% BSA. Fresh platelets were washed and suspended in Tyrode's buffer and allowed to adhere for 30 minutes. Plates were washed with PBS, fixed with 0.5% glutaraldehyde and stained with 0.02% toluidine blue. Adherent platelets were counted microscopically. In some experiments platelets were pre-incubated with the Rap1 geranylgeranyltransferase inhibitor GGTI-298 (10 μM) for 30 minutes prior to initiating adhesion.
# HUVEC = experiment: NO-stimulated HUVEC adhesion on type I collagen; assay type: cell-based, human; conditions: DEA/NO 10 μM, 1 h
# Method: Cell adhesion was carried out in 96-well culture plates. After pre-coating wells with type I collagen (3 μg/ml in DPBS) harvested cells were plated at a density of 1×10^4 cells/well in medium plus 0.1% BSA and treatment agents and incubated in 5% CO2 for 1 h. Wells were washed with PBS and cells fixed with 1% glutaraldehyde for 10 min., washed and stained with 1% crystal violet for 20 min. Excess stain was rinsed away, adherent cells treated with 10% acetic acid, and plates read at 570 nm.
# human platelets [4] = experiment: Thrombin-induced human platelet aggregation; assay type: cell-based; conditions: high shear, thrombin 0.2 U/ml, DEA/NO 10 μM
# Method: Platelets were pelleted from platelet-rich plasma (PRP) by centrifugation for 10 minutes at 200 g. They were then washed with acid citrate dextrose (ACD) (85 mM citric acid, 65 mM sodium citrate, 100 mM glucose, pH 5.1) at a ratio of 1:7 at room temperature. After pelleting the platelets again and removing the supernatant, the platelets were resuspended in 5 mL of Tyrode's buffer (137 mM NaCl, 3 mM KCl, 12 mM NaHCO3, 0.3 mM NaHPO4, 2 mM CaCl2, 1 mM MgCl2, 5.5 mM glucose, 5 mM HEPES, 3.5 mg/mL BSA, pH 7.4). The final platelet number was adjusted to […] in 500 μl/cuvette of Tyrode's buffer.
# Aggregation of human platelets under high shear conditions was assessed using a standard optical aggregometer (Lumi-Dual Aggregometer, Chrono-Log Corp., Havertown, Pa.) at 37° C. and 1200 rpm in a volume of 500 μl buffer with a final platelet concentration of 2×10^5 platelets/μl over a 5 minute interval. Pre-incubation with TSP1 and TSP1-based agents was for 15 minutes prior to addition of thrombin and/or the rapidly releasing nitric oxide donor DEA/NO. In some experiments platelets were pre-incubated with the Rap1 inhibitor GGTI-298 (10 μM) (Calbiochem, La Jolla, Calif.) for 30 minutes prior to initiating aggregation. In other high shear aggregation experiments murine platelets were prepared as above with the following modifications. Mouse blood was collected by retro-orbital bleeding of anesthetized mice using heparinized tubes. PRP was prepared and then diluted with 4 vol. of Tyrodes containing 5 mM EDTA to prevent activation. After collection by centrifugation, platelets were resuspended in 2× initial PRP volume and held at room temperature for less than 1 hour before use. Aggregation conditions consisted of 250 μL of washed platelets stirred at 1200 rpm in a Chronolog Optical aggregometer at 37° C. DEA/NO (10 μM) was added 30 seconds prior to activation and 8-BrcGMP added 15 min prior to activation with 0.2 U/ml human thrombin. Data was collected using Chronolog “Aggrolink” software. Platelet aggregation under static conditions was assessed using a spectrophotometer (Beckman DU 640, Beckman Coulter, Fullerton, Calif.) and determined as a change in absorbance at 400 nm with continuous observation over a five minute interval. The cuvette was inverted once every 60 seconds. Pre-incubation with TSP1 and TSP1-based agents was for 15 minutes prior to addition of thrombin and/or DEA/NO to minimize the formation of thrombin-serpinthrombospondin complexes (Chang & Detwiler, Arch Biochem Biophys. 299:100-104, 1992), which interfere with thrombin-platelet interactions.
# Fresh human platelets were suspended in Tyrode's buffer and under low shear conditions thrombin-stimulated aggregation measured as described. Platelets were then treated with peptide C6d (1 μM)±NO (10 μM DEA/NO) and thrombin and aggregation measure.
# human platelets [5] = experiment: cGMP in human platelets; assay type: cell-based; conditions: washed human platelets in Tyrode's buffer
# Method: Fresh human platelets at 2×10^5 platelets/μl in Tyrode's buffer or PRP were pre-incubated with the indicated agents for 15 minutes and then challenged with DEA/NO for the indicated time interval at room temperature and total cGMP determined via immunoassay (Amersham, GE Healthcare, Buckinghamshire, UK). Murine WT and TSP1-null platelets were treated with DEA/NO and cGMP flux measured.
# [6] = system: murine ASMC (WT, CD36 null, CD47 null); experiment: Intracellular cGMP in murine ASMC; assay type: cell-based, mouse
# Method: Murine ASMC were obtained from aortic segments harvested sterilely from C57B1/6 CD47 null or CD36 null mice as described (Ray et al., Methods Cell Sci 23:185-188, 2001) and cultured in SM-GM (Cambrex)+20% FCS. In the case of CD36 null cells, culture flasks were pre-coated with 1% gelatin prior to cell plating. Wild type C57B1/6 ASMC cultures were prepared as previously described (Isenberg et al., Matrix Biol 24:110-123, 2005). Cell culture purity was determined by immunohistochemistry staining for α-smooth muscle actin. Cells were used within passage 1 to 4 to minimize overgrowth of other cell types.
# HUVEC (10^4 cells/well) grown overnight in 96-well culture plates containing full growth medium with 2% FCS and weaned in growth medium without additives and 1% FCS over 24 hrs before treatment with NO donors and other agents in SM-GM without additives+0.1% BSA. Intracellular cGMP levels were determined according to the manufacturer's instructions using an enzyme immunoassay kit (Amersham Biosciences). In other experiments ASMC from wild type and CD36 or CD47 null mice were plated onto 96-well culture plates and incubated overnight in full growth medium. They were then weaned off serum as described to SM-GM+0.1% BSA and treated with NO donor and other agents as indicated. Intracellular cyclic nucleotides were determined via immunoassay.
molecule,measurement,setting,value
"NCCN(CCN)/[N+]([O-])=N/O [DETA/NO, diethyltriamine NONOate]",collagen gel contraction,HAVSMC [1],inhibited gel contraction by both agonists
"O=c1onc2cnc3ccccc3n12 [ODQ, Oxadiazole-[4,3-a]quinoxalin-1-one, reference compound]",NO-induced actin disassembly,HAVSMC [2]; DEA/NO 10 μM,inhibition of actin disassembly by NO
same,decrease in platelet adhesion in response to exogenous NO,human platelets [3],prevented the decrease in platelet adhesion
"CCCCCCCCCCCCC/C=C/[C@@H](O)[C@@H](N)COP(=O)(O)O [S1P, sphingosine-1-phosphate, reference compound]",F-actin levels,"HAVSMC [2]; agent alone (TSP1 2.2 nM, S1P 100 nM)",increased F-actin
same,collagen gel contraction,HAVSMC [1],significant contraction
"GDGV(D-I)TRIR (GDGV[dI]TRIR) [p907, reference compound]",NO-stimulated endothelial cell adhesion on type I collagen,HUVEC,inhibited NO-stimulated endothelial cell adhesion
same,NO delay of thrombin-induced platelet aggregation,human platelets [4],accelerated platelet aggregation in the presence of NO
same,NO stimulated cGMP in platelets,human platelets [5],partially inhibited
same,NO-stimulated cGMP,[6]; CD36 null MASMC,partially inhibited
same,NO-stimulated cGMP,[6]; CD47 null MASMC,did not significantly inhibit
same,NO-stimulated cGMP,[6]; WT MASMC,slightly inhibited
same,NO-stimulated cGMP,"[6]; WT MASMC, listed as 907",inhibited NO-stimulated cGMP responses in WT
